ChEMBL document CHEMBL1201862, “PubChem BioAssay data set” (2004)
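Test compounds were applied to cells in 96-well plates for 48 hours at 5 doses. GI50 = concentration required for 50% inhibition of growth.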 Calls of active or inactive are those of the source. Cut-off read from the data, not from the text of the source: active = GI50 up to about 1.1 µM and inactive = higher.

Key:
Test in all cases: NCI anticancer screen, dose series, 48 h
786-0 = test system: 786-0
BT-549 = test system: BT-549
CAKI-1 = test system: CAKI-1
EKVX = test system: EKVX
HCC 2998 = test system: HCC 2998
HOP-62 = test system: HOP-62
Hs-578T = test system: Hs-578T
IGROV-1 = test system: IGROV-1
K562 = test system: K562
LOX IMVI = test system: LOX IMVI
M14 = test system: M14
MCF7 = test system: MCF7
Malme-3M = test system: Malme-3M
NCI-H460 = test system: NCI-H460
OVCAR-3 = test system: OVCAR-3
OVCAR-4 = test system: OVCAR-4
RXF 393 = test system: RXF 393
SK-MEL-2 = test system: SK-MEL-2
SN12C = test system: SN12C
UO-31 = test system: UO-31

SMILES	GI50 (786-0)	GI50 (BT-549)	GI50 (CAKI-1)	GI50 (EKVX)	GI50 (HCC 2998)	GI50 (HOP-62)	GI50 (Hs-578T)	GI50 (IGROV-1)	GI50 (K562)	GI50 (LOX IMVI)	GI50 (M14)	GI50 (MCF7)	GI50 (Malme-3M)	GI50 (NCI-H460)	GI50 (OVCAR-3)	GI50 (OVCAR-4)	GI50 (RXF 393)	GI50 (SK-MEL-2)	GI50 (SN12C)	GI50 (UO-31)
C[C@]12CCC3c4ccc(O)cc4CC[C@H]3C1CC(=O)N(CCN1CCCC1)C2=O (stereo partly specified)	> 10 µM (inactive)	> 10 µM (inactive)	> 10 µM (inactive)	> 10 µM (inactive)	> 10 µM (inactive)	> 10 µM (inactive)	> 10 µM (inactive)	> 10 µM (inactive)	> 10 µM (inactive)	> 10 µM (inactive)	> 10 µM (inactive)	> 10 µM (inactive)	> 10 µM (inactive)	> 10 µM (inactive)	> 10 µM (inactive)	> 10 µM (inactive)	> 10 µM (inactive)	> 10 µM (inactive)	> 10 µM (inactive)	> 10 µM (inactive)
COc1ccc(CSC2=C(C#N)C(=O)NC3(CCCCC3)S2)cc1	64.1 µM (inactive)	48.2 µM (inactive)	77.6 µM (inactive)	54 µM (inactive)	28.2 µM (inactive)	61.8 µM (inactive)	41.9 µM (inactive)	> 69.7 µM (inactive)	> 50 µM (inactive)	30.1 µM (inactive)	42.2 µM (inactive)	34.2 µM (inactive)	54.5 µM (inactive)	69 µM (inactive)	35.2 µM (inactive)	36.6 µM (inactive)	30.5 µM (inactive)	38.6 µM (inactive)	65.2 µM (inactive)	96.4 µM (inactive)
C[N+]1(C(CO)Cc2c[nH]c3ccccc23)Cc2ccccc2C1 (stereo unspecified)	> 100 µM (inactive)	77.6 µM (inactive)	> 100 µM (inactive)	62.4 µM (inactive)	> 100 µM (inactive)	> 100 µM (inactive)	> 100 µM (inactive)	> 100 µM (inactive)	89.7 µM (inactive)	> 100 µM (inactive)	35.8 µM (inactive)	> 100 µM (inactive)	13.7 µM (inactive)	> 100 µM (inactive)	> 100 µM (inactive)	> 100 µM (inactive)	> 100 µM (inactive)	> 100 µM (inactive)	> 100 µM (inactive)	> 100 µM (inactive)
COc1ccc(CCN2C(=O)C=CC2=O)cc1OC	3.07 µM (inactive)	17.5 µM (inactive)	13.3 µM (inactive)	19.2 µM (inactive)	17.4 µM (inactive)	22.5 µM (inactive)	32.4 µM (inactive)	18 µM (inactive)	2.59 µM (inactive)	18.5 µM (inactive)	9.84 µM (inactive)	17.3 µM (inactive)	13.8 µM (inactive)	21.5 µM (inactive)	18 µM (inactive)	1.88 µM (inactive)	4.9 µM (inactive)	5.2 µM (inactive)	17.5 µM (inactive)	1.63 µM (inactive)
COC1(OC)C[C@H](C)[C@@]23O[C@]24C2=CC(=O)C=CC2=N[C@H]3C#C/C=C\C#C[C@]14O	0.0675 µM (active)	1 µM (active)	0.284 µM (active)	0.578 µM (active)	0.67 µM (active)	0.787 µM (active)	0.904 µM (active)	0.724 µM (active)	0.359 µM (active)	0.3 µM (active)	0.53 µM (active)	0.276 µM (active)	0.671 µM (active)	0.344 µM (active)	0.431 µM (active)	0.501 µM (active)	0.537 µM (active)	1.66 µM (inactive)	0.973 µM (active)	0.355 µM (active)
c1ccc(/N=C2\c3ccccc3CN2c2ccccc2)cc1	> 100 µM (inactive)	> 100 µM (inactive)	> 100 µM (inactive)	> 100 µM (inactive)	> 100 µM (inactive)	> 100 µM (inactive)	> 100 µM (inactive)	> 100 µM (inactive)	> 100 µM (inactive)	> 100 µM (inactive)	> 100 µM (inactive)	> 100 µM (inactive)	> 100 µM (inactive)	> 100 µM (inactive)	> 100 µM (inactive)	> 100 µM (inactive)	> 100 µM (inactive)	> 100 µM (inactive)	> 100 µM (inactive)	> 100 µM (inactive)
CC(=O)O[C@H]1C(=O)[C@]2(C)[C@@H](OC(=O)OCCC(O)CO)C[C@H]3OC[C@@]3(OC(C)=O)[C@H]2[C@H](OC(=O)c2ccccc2)[C@]2(O)C[C@H](OC(=O)[C@H](O)[C@@H](NC(=O)c3ccccc3)c3ccccc3)C(C)=C1C2(C)C (stereo partly specified)	0.08 µM (active)	0.0667 µM (active)	2.26 µM (inactive)	0.121 µM (active)	< 0.01 µM (active)	0.0964 µM (active)	< 0.01 µM (active)	< 0.0142 µM (active)	< 0.01 µM (active)	< 0.01 µM (active)	0.0461 µM (active)	< 0.01 µM (active)	< 0.01 µM (active)	< 0.0126 µM (active)	< 0.01 µM (active)	13.9 µM (inactive)	0.213 µM (active)	0.0265 µM (active)	< 0.0166 µM (active)	8.61 µM (inactive)
OC(C#CCN1CCCC1)(c1ccccc1)c1ccccc1Cl (stereo unspecified)	> 10 µM (inactive)	46.2 µM (inactive)	24.8 µM (inactive)	48.5 µM (inactive)	21.8 µM (inactive)	19.5 µM (inactive)	31 µM (inactive)	14.8 µM (inactive)	30.8 µM (inactive)	18.7 µM (inactive)	–	17.9 µM (inactive)	> 10 µM (inactive)	20.2 µM (inactive)	82.8 µM (inactive)	31 µM (inactive)	46.8 µM (inactive)	26.6 µM (inactive)	43.9 µM (inactive)	24.7 µM (inactive)
CC(=O)OCC12C(=O)C[C@@H](C)C3(CC(c4ccoc4)OC3=O)C1CCC(OC(C)=O)C21CO1 (stereo partly specified)	> 100 µM (inactive)	> 100 µM (inactive)	> 100 µM (inactive)	–	> 100 µM (inactive)	> 100 µM (inactive)	> 100 µM (inactive)	> 100 µM (inactive)	> 100 µM (inactive)	> 100 µM (inactive)	> 100 µM (inactive)	> 100 µM (inactive)	> 100 µM (inactive)	> 100 µM (inactive)	> 100 µM (inactive)	> 100 µM (inactive)	87.3 µM (inactive)	> 100 µM (inactive)	> 100 µM (inactive)	> 100 µM (inactive)
CCOC(=O)C1(C#N)C(C#N)(C#N)C1(C#N)C#N	> 100 µM (inactive)	> 100 µM (inactive)	> 100 µM (inactive)	> 100 µM (inactive)	> 100 µM (inactive)	> 100 µM (inactive)	> 100 µM (inactive)	> 100 µM (inactive)	> 100 µM (inactive)	> 100 µM (inactive)	> 100 µM (inactive)	> 100 µM (inactive)	> 100 µM (inactive)	> 100 µM (inactive)	–	> 100 µM (inactive)	> 100 µM (inactive)	> 100 µM (inactive)	> 100 µM (inactive)	> 100 µM (inactive)
CC(C)(CO[C@H]1C[C@H]2CC[C@@]1(C)C2(C)C)[N+](=O)[O-]	14.3 µM (inactive)	21.5 µM (inactive)	20 µM (inactive)	16.7 µM (inactive)	2.07 µM (inactive)	19.5 µM (inactive)	27.4 µM (inactive)	30.8 µM (inactive)	13.9 µM (inactive)	18.1 µM (inactive)	13.3 µM (inactive)	22.9 µM (inactive)	20.3 µM (inactive)	19.6 µM (inactive)	22.8 µM (inactive)	30.3 µM (inactive)	11 µM (inactive)	16.6 µM (inactive)	27.4 µM (inactive)	12.5 µM (inactive)
O/N=C1\Nc2ccccc2OCc2cc(Br)c(Br)cc2COc2ccccc2N\C1=N/O	10 µM (inactive)	15.1 µM (inactive)	12.9 µM (inactive)	15.2 µM (inactive)	7.71 µM (inactive)	15.5 µM (inactive)	31.7 µM (inactive)	2.79 µM (inactive)	4.85 µM (inactive)	10.1 µM (inactive)	21.2 µM (inactive)	6.81 µM (inactive)	16.4 µM (inactive)	13.2 µM (inactive)	7.21 µM (inactive)	10.7 µM (inactive)	16.6 µM (inactive)	19.5 µM (inactive)	11.9 µM (inactive)	19.1 µM (inactive)
C[C@H]1CC(=O)C[C@@H]2CC[C@@H]3[C@H](CC[C@]4(C)C(OC(=O)c5cccc6c(=O)c7ccccc7[nH]c56)CC[C@@H]34)[C@]21C (stereo partly specified)	48 µM (inactive)	26.7 µM (inactive)	10 µM (inactive)	31.1 µM (inactive)	47 µM (inactive)	36.6 µM (inactive)	46.8 µM (inactive)	38.5 µM (inactive)	23.6 µM (inactive)	31.2 µM (inactive)	30.6 µM (inactive)	62.5 µM (inactive)	92.5 µM (inactive)	26.7 µM (inactive)	47.2 µM (inactive)	26.1 µM (inactive)	39.2 µM (inactive)	28.6 µM (inactive)	46 µM (inactive)	24.2 µM (inactive)
NS(=O)(=O)c1nnc(NC(=O)C23CC4CC(CC(C4)C2)C3)s1	> 100 µM (inactive)	82.2 µM (inactive)	> 100 µM (inactive)	> 100 µM (inactive)	> 100 µM (inactive)	> 100 µM (inactive)	> 100 µM (inactive)	–	> 100 µM (inactive)	> 100 µM (inactive)	> 100 µM (inactive)	> 100 µM (inactive)	> 100 µM (inactive)	60.1 µM (inactive)	> 100 µM (inactive)	0.101 µM (active)	61.7 µM (inactive)	> 100 µM (inactive)	> 100 µM (inactive)	> 100 µM (inactive)
